Assay [1] concerns HeLa human cervical tumor cells. The experiment in a line: HeLa cell proliferation assay (crystal violet). The assay is classed as cell-based. To be noted: 96 h, 4 days incubation, read-out: Inhibition of cell proliferation, cell Line: HeLa IC50.
The target of assay [2] is human kinase Mps-1 (Homo sapiens (Human), UniProt P33981). Nature of the assay: Mps-1 kinase assay (TR-FRET). The assay is classed as biochemical.
Setting [3] is: read-out: Mps-1 Inhibition, IC50 (Assay with 10 μM ATP), 10 μM ATP.
The mark [4] stands for this setting: read-out: Mps-1 Inhibition, IC50 (Assay with 2 mM ATP), 2 mM ATP.

Where two headings read alike, the source gives them in different places.

Sequence of human kinase Mps-1 (P33981 whole entry): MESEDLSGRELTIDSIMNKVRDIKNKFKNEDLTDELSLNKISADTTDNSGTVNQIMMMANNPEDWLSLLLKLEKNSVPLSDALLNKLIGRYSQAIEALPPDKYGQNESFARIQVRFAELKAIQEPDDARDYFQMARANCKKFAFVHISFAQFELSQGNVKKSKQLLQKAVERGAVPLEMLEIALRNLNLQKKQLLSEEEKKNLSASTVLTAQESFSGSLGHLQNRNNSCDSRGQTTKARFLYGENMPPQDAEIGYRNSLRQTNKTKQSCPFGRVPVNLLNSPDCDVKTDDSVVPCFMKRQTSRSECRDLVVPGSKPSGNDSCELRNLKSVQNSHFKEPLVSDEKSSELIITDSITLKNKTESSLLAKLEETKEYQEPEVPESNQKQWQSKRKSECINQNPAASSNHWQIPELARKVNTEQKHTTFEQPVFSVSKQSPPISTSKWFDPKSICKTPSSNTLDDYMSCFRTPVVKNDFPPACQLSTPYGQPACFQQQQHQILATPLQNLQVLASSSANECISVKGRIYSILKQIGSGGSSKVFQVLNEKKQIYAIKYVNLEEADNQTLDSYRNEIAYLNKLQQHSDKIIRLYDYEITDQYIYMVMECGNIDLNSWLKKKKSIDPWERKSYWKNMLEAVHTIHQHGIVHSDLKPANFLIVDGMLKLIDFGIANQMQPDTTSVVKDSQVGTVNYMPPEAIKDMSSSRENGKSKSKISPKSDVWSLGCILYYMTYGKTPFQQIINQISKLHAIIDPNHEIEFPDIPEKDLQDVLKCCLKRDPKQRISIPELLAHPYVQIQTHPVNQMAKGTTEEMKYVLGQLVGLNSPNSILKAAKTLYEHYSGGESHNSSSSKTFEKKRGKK

Turning to `COc1cc(C(=O)N(C)C)ccc1Nc1nc2ccc(-c3ccc(NC(=O)[C@H](C)c4ccc(F)cc4)cc3)cn2n1` [Example01.12, 4-{[6-(4-{[(2R)-2-(4-fluorophenyl)propanoyl]amino}phenyl)[1,2,4]triazolo[1,5-a]pyridin-2-yl]amino}-3-methoxy-N,N-dimethylbenzamide], the IC50 is less than 200 nM in assay [1], less than 1 nM in assay [2] (setting [3]) and less than 1 nM in assay [2] (setting [4]).
Consider `COc1cc(C(=O)N2CCCC2)ccc1Nc1nc2ccc(-c3ccc(NC(=O)[C@H](C)c4ccc(F)cc4)cc3)cn2n1` [Example01.13, (2R)-2-(4-fluorophenyl)-N-[4-(2-{[2-methoxy-4-(pyrrolidin-1-ylcarbonyl)phenyl]amino}[1,2,4]triazolo[1,5-a]pyridin-6-yl)phenyl]propanamide], for which the IC50 in assay [1] is less than 400 nM; in assay [2] (setting [3]) it was less than 1 nM; in assay [2] (setting [4]) it was less than 1 nM.
As for `C[C@@H](C(=O)Nc1ccc(-c2ccc3nc(Nc4ccc(C(=O)N5CC(F)C5)cc4OCC(F)(F)F)nn3c2)cc1)c1ccc(F)cc1` [Example01.14, (2R)—N-{4-[2-({4-[(3-fluoroazetidin-1-yl)carbonyl]-2-(2,2,2-trifluoroethoxy)phenyl}amino)[1,2,4]triazolo[1,5-a]pyridin-6-yl]phenyl}-2-(4-fluorophenyl)propanamide], the IC50 in assay [2] (setting [3]) and in assay [2] (setting [4]) was less than 1 nM in each case.
As to `C[C@@H](C(=O)Nc1ccc(-c2ccc3nc(Nc4ccc(C(=O)N5CC(O)C5)cc4OCC(F)(F)F)nn3c2)cc1)c1ccc(F)cc1` [Example01.15, (2R)-2-(4-fluorophenyl)-N-{4-[2-({4-[(3-hydroxyazetidin-1-yl)carbonyl]-2-(2,2,2-trifluoroethoxy)phenyl}amino)[1,2,4]triazolo[1,5-a]pyridin-6-yl]phenyl}propanamide], the IC50 was less than 100 nM in assay [1], less than 1 nM in assay [2] (setting [3]) and less than 1 nM in assay [2] (setting [4]).
Regarding `C[C@@H](C(=O)Nc1ccc(-c2ccc3nc(Nc4ccc(C(=O)N5CCCC5)cc4OCC(F)(F)F)nn3c2)cc1)c1ccc(F)cc1` [Example 01.16, (2R)-2-(4-fluorophenyl)-N-[4-(2-{[4-(pyrrolidin-1-ylcarbonyl)-2-(2,2,2-trifluoroethoxyl)phenyl]amino}[1,2,4]triazolo[1,5-a]pyridin-6-yl)phenyl]propanamide], the IC50 in assay [1] is less than 100 nM; in assay [2] (2 mM ATP), 1.3 nM; in assay [2] (setting [3]) it was less than 1 nM.
The matching figures for `COc1cc(S(C)(=O)=O)ccc1Nc1nc2ccc(-c3ccc(NC(=O)[C@H](CO)c4ccc(F)cc4)cc3)cn2n1` [Example 01.17, (2S)-2-(4-fluorophenyl)-3-hydroxy-N-[4-(2-{[2-methoxy-4-(methylsulfonyl)phenyl]amino}[1,2,4]triazolo[1,5-a]pyridin-6-yl)phenyl]propanamide]: less than 600 nM, 4.8 nM and less than 1 nM.
`O=C(Nc1ccc(-c2ccc3nc(Nc4ccc(C(=O)N5CC(F)C5)cc4OCC(F)(F)F)nn3c2)cc1)[C@H](CO)c1ccc(F)cc1` [Example 01.18, (2S)—N-{4-[2-({4-[(3-fluoroazetidin-1-yl)carbonyl]-2-(2,2,2-trifluoroethoxyl)phenyl}amino)[1,2,4]triazolo[1,5-a]pyridin-6-yl]phenyl}-2-(4-fluorophenyl)-3-hydroxypropanamide]: the IC50 in assay [1] is less than 100 nM; in assay [2] (setting [3]), less than 1 nM; in assay [2] (setting [4]), less than 1 nM.
With `CS(=O)(=O)c1ccc(Nc2nc3ccc(-c4ccc(NC(=O)[C@H](N)c5ccc(F)cc5)cc4)cn3n2)c(OCC(F)(F)F)c1` [Example 01.19, (2R)-2-amino-2-(4-fluorophenyl)-N-[4-(2-{[4-(methylsulfonyl)-2-(2,2,2-trifluoroethoxyl)phenyl]amino}[1,2,4]triazolo[1,5-a]pyridin-6-yl)phenyl]ethanamide], the results for the IC50 in assay [1], in assay [2] (setting [3]) and in assay [2] (setting [4]) were less than 200 nM, less than 1 nM and less than 1 nM, respectively.
Take `COc1cc(N2CCOC2=O)ccc1Nc1nc2ccc(-c3ccc(NC(=O)[C@H](N)c4ccc(F)cc4)cc3)cn2n1` [Example 01.20, (2R)-2-amino-2-(4-fluorophenyl)-N-[4-(2-{[2-methoxy-4-(2-oxo-1,3-oxazolidin-3-yl)phenyl]amino}[1,2,4]triazolo[1,5-a]pyridin-6-yl)phenyl]ethanamide]: the IC50 is less than 200 nM in assay [1], 1.5 nM in assay [2] (2 mM ATP) and less than 1 nM in assay [2] (setting [3]).
As to `COc1cc(C(=O)N2CC(F)C2)ccc1Nc1nc2ccc(-c3ccc(NC(=O)[C@H](N)c4ccc(F)cc4)cc3)cn2n1` [Example 01.21, (2R)-2-amino-N-{4-[2-({4-[(3-fluoroazetidin-1-yl)carbonyl]-2-methoxyphenyl}amino)[1,2,4]triazolo[1,5-a]pyridin-6-yl]phenyl}-2-(4-fluorophenyl)ethanamide], the IC50 is less than 200 nM in assay [1], less than 1 nM in assay [2] (setting [3]) and less than 1 nM in assay [2] (setting [4]).
Regarding `COc1cc(C(=O)N2CCC2)ccc1Nc1nc2ccc(-c3ccc(NC(=O)[C@H](N)c4ccc(F)cc4)cc3)cn2n1` [Example 01.22, (2R)-2-amino-N-[4-(2-{[4-(azetidin-1-ylcarbonyl)-2-methoxyphenyl]amino}[1,2,4]triazolo[1,5-a]pyridin-6-yl)phenyl]-2-(4-fluorophenyl)ethanamide], the IC50 in assay [1] is less than 200 nM; in assay [2] (setting [3]) it was less than 1 nM; in assay [2] (setting [4]) it was less than 1 nM.
In the case of `COc1cc(C(=O)N2CCCC2)ccc1Nc1nc2ccc(-c3ccc(NC(=O)[C@H](N)c4ccc(F)cc4)cc3)cn2n1` [Example 01.23, (2R)-2-amino-2-(4-fluorophenyl)-N-[4-(2-{[2-methoxy-4-(pyrrolidin-1-ylcarbonyl)phenyl]amino}[1,2,4]triazolo[1,5-a]pyridin-6-yl)phenyl]ethanamide], the figures for the IC50 in assay [1], in assay [2] (setting [3]) and in assay [2] (setting [4]) were less than 400 nM, less than 1 nM and less than 1 nM, respectively.
On to `N[C@@H](C(=O)Nc1ccc(-c2ccc3nc(Nc4ccc(C(=O)N5CC(F)C5)cc4OCC(F)(F)F)nn3c2)cc1)c1ccc(F)cc1` [Example 01.24, (2R)-2-amino-N-{4-[2-({4-[(3-fluoroazetidin-1-yl)carbonyl]-2-(2,2,2-trifluoroethoxyl)phenyl}amino)[1,2,4]triazolo[1,5-a]pyridin-6-yl]phenyl}-2-(4-fluorophenyl)ethanamide], for which the IC50 in assay [1] was less than 100 nM; in assay [2] (setting [3]), less than 1 nM; in assay [2] (setting [4]) it was less than 1 nM.
`N[C@@H](C(=O)Nc1ccc(-c2ccc3nc(Nc4ccc(C(=O)N5CCCC5)cc4OCC(F)(F)F)nn3c2)cc1)c1ccc(F)cc1` [Example 01.25, (2R)-2-amino-2-(4-fluorophenyl)-N-[4-(2-{[4-(pyrrolidin-1-ylcarbonyl)-2-(2,2,2-trifluoroethoxyl)phenyl]amino}[1,2,4]triazolo[1,5-a]pyridin-6-yl)phenyl]ethanamide]: the IC50 is less than 200 nM in assay [1], less than 1 nM in assay [2] (setting [3]) and less than 1 nM in assay [2] (setting [4]).

(Values after patent publication US9663510B2, “Substituted triazolopyridines and their use as TTK inhibitors” (Bayer Intellectual Property GmbH, priority 2011, dated 2017).)
